Some test systems named below: SN12C renal; HCT-15 colon; SNB-75 CNS; IGROV1 ovarian; ACHN renal; SK-MEL-2 melanoma; NCI-H226 lung; BT-549 breast; COLO 205 colon; NCI-H460 lung.
Common to all, as to experiment: inhibition of tumour cell growth, NCI panel, 48 h

Each structure is given as a SMILES string.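 Growth conditions: 96-well plates. Treatment: test compound, 48 hours, 5 concentrations. Analysis: linear interpolation between bracketing concentrations; unreached endpoints set to highest concentration. GI50: concentration for 50% inhibition of growth. Definition used: TGI = concentration required for complete inhibition of growth.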

Turning to `Nc1n[nH]c2cccc(C#Cc3cccc(NC(=O)c4cccc(C(F)(F)F)c4)c3)c12`, the GI50 in the experiment with SN12C renal is 4.09 µM; with HCT-15 colon, 2.92 µM; in the experiment on SNB-75 CNS, 2.79 µM; in the experiment on IGROV1 ovarian, 1.53 µM; in the experiment with ACHN renal it was 2.44 µM; with SK-MEL-2 melanoma, 1.36 µM. Further, the GI50 in the experiment on NCI-H226 lung was 0.86 µM; in the experiment with BT-549 breast it was 3.34 µM; in the experiment with COLO 205 colon, 3.65 µM; in the experiment on NCI-H460 lung, 4.11 µM. For the same compound, the TGI in the experiment with SN12C renal worked out at 17.3 µM; in the experiment with HCT-15 colon, 13.6 µM; in the experiment on SNB-75 CNS it was 18.6 µM; in the experiment with IGROV1 ovarian, 4.31 µM; in the experiment with ACHN renal, 9.78 µM; in the experiment on SK-MEL-2 melanoma, 6.95 µM. Moreover, the TGI in the experiment with NCI-H226 lung was found to be 20.3 µM; with BT-549 breast it was 11.1 µM; in the experiment on COLO 205 colon, 15.1 µM; in the experiment with NCI-H460 lung it was 15.7 µM.

For the compound `CS(=O)(=O)CCNCc1coc(-c2ccc3ncnc(Nc4ccc(OCc5ccccc5)cc4)c3c2)c1`, the GI50 in the experiment on SN12C renal is 3.57 µM; with HCT-15 colon it was 4.15 µM; in the experiment on SNB-75 CNS it was 3.92 µM; with IGROV1 ovarian, 3.7 µM; in the experiment with ACHN renal, 3.69 µM; with SK-MEL-2 melanoma, 4.55 µM. Also, the GI50 was > 12.8 µM with NCI-H226 lung, 10.9 µM with BT-549 breast, 4.78 µM in the experiment with COLO 205 colon and 3.86 µM with NCI-H460 lung. Besides, the TGI in the experiment with SN12C renal was 8.04 µM; in the experiment on HCT-15 colon, 9.53 µM; in the experiment with SNB-75 CNS, 10 µM; with IGROV1 ovarian, > 20.7 µM; in the experiment with ACHN renal it was 17.1 µM; in the experiment with SK-MEL-2 melanoma, 8.92 µM. Also, the TGI was > 25 µM in the experiment on NCI-H226 lung, > 25 µM in the experiment with BT-549 breast, 9.84 µM with COLO 205 colon and 8.5 µM in the experiment with NCI-H460 lung.

Consider `CN(C)CCOc1ccc([N+](=O)[O-])c2cccnc12`, for which the TGI in the experiment on SN12C renal, in the experiment with HCT-15 colon, in the experiment with SNB-75 CNS, in the experiment on IGROV1 ovarian, in the experiment with ACHN renal and with SK-MEL-2 melanoma was > 100 µM throughout. The TGI in the experiment on NCI-H226 lung, with BT-549 breast, in the experiment on COLO 205 colon and in the experiment with NCI-H460 lung was > 100 µM throughout.

On to `COC(=O)c1ccc2[nH]c(O)c(C(=Nc3ccc(N(C)C(=O)CN4CCN(C)CC4)cc3)c3ccc4c(c3)OCO4)c2c1`, for which the GI50 with SN12C renal was 0.321 µM; in the experiment with HCT-15 colon, 1.52 µM; with SNB-75 CNS it was 0.0752 µM; in the experiment with IGROV1 ovarian, 0.176 µM; in the experiment on ACHN renal it was 1.58 µM; in the experiment with SK-MEL-2 melanoma, 1.24 µM. For the same compound, the GI50 in the experiment with NCI-H226 lung was 0.616 µM; in the experiment with BT-549 breast it was 1.06 µM; with COLO 205 colon it was 0.369 µM; in the experiment on NCI-H460 lung, 0.902 µM. Also, the TGI with SN12C renal stood at 9.61 µM; in the experiment on HCT-15 colon, 5.8 µM; with SNB-75 CNS, 1.65 µM; in the experiment on IGROV1 ovarian, 1.52 µM; in the experiment on ACHN renal, 7.11 µM; with SK-MEL-2 melanoma it was 3.69 µM. Moreover, the TGI in the experiment on NCI-H226 lung was determined as 6.13 µM; in the experiment with BT-549 breast, 2.47 µM; with COLO 205 colon, 1.74 µM; in the experiment with NCI-H460 lung it was 2.65 µM.

On to `COc1cccc2c1C(=N)c1c(O)c3c(c(O)c1C2=O)C[C@@](O)(C(C)=O)C[C@@H]3O[C@H]1C[C@H](N)[C@H](O)[C@H](C)O1`, for which the GI50 was 0.224 µM in the experiment on SN12C renal; 2.53 µM with HCT-15 colon; 0.159 µM in the experiment on SNB-75 CNS; 0.645 µM in the experiment on IGROV1 ovarian; 0.419 µM in the experiment with ACHN renal; 2.28 µM with SK-MEL-2 melanoma. Also, the GI50 in the experiment with NCI-H226 lung was 0.167 µM; with BT-549 breast, 0.813 µM; in the experiment on NCI-H460 lung, 0.0472 µM. Moreover, the TGI in the experiment with SN12C renal is 1.21 µM; in the experiment on HCT-15 colon, 18.2 µM; with SNB-75 CNS it was 2.08 µM; with IGROV1 ovarian it was 6.25 µM; with ACHN renal, 3.1 µM; in the experiment on SK-MEL-2 melanoma it was 4.95 µM. The TGI with NCI-H226 lung worked out at 1.4 µM; with BT-549 breast it was 4.58 µM; with COLO 205 colon, 3.16 µM; in the experiment with NCI-H460 lung, 0.833 µM.

With `O=C(/C=C/c1ccccc1)Nc1ncc(Cc2ccccc2Cl)s1`, the GI50 is 0.623 µM in the experiment with SN12C renal; 0.237 µM in the experiment on HCT-15 colon; 0.219 µM in the experiment on SNB-75 CNS; 0.477 µM in the experiment on IGROV1 ovarian; 0.612 µM with ACHN renal; 1.25 µM in the experiment on SK-MEL-2 melanoma. In addition, the GI50 is 0.35 µM in the experiment with NCI-H226 lung, 0.945 µM in the experiment on BT-549 breast, 0.366 µM in the experiment with COLO 205 colon and 0.333 µM with NCI-H460 lung. Besides, the TGI is > 100 µM with SN12C renal; > 100 µM in the experiment on HCT-15 colon; 2.16 µM with SNB-75 CNS; > 100 µM in the experiment on IGROV1 ovarian; > 100 µM in the experiment with ACHN renal; > 100 µM in the experiment with SK-MEL-2 melanoma. The TGI in the experiment on NCI-H226 lung, in the experiment with BT-549 breast, in the experiment on COLO 205 colon and in the experiment on NCI-H460 lung was > 100 µM each time.

For the origin of these results see PubChem BioAssay (NCI).
